15 compounds from US9776972B2, “Pyrazole derivatives as arginine methyltransferase inhibitors and uses thereof” (priority 2013, dated 2017) can be followed below.

Structures are written as SMILES. A value given as a limit tells only on which side of the number the result lay.

human PRMT3, sequence (O60678 with tags, fused parts or gaps): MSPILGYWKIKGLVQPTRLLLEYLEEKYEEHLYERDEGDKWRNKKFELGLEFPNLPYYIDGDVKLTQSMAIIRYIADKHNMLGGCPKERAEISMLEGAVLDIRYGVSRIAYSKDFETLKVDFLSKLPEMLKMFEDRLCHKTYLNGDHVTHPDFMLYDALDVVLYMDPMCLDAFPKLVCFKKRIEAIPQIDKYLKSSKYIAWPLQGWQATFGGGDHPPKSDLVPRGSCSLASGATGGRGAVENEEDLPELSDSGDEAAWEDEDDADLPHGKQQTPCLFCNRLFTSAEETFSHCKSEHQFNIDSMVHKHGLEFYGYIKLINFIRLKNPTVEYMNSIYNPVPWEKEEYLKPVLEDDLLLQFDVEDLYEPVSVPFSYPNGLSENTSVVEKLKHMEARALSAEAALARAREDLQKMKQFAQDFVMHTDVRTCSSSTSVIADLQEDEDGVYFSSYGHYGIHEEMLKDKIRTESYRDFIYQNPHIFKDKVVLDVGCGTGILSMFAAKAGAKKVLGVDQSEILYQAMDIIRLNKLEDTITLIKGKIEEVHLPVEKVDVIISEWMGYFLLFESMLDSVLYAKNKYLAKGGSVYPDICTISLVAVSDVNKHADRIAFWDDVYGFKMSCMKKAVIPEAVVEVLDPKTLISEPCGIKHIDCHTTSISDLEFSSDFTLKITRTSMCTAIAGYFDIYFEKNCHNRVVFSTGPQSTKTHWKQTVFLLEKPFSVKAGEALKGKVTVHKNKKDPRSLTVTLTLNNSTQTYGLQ

This assay has as its target human PRMT3 (Homo sapiens, UniProt O60678). The assay is described as follows: PRMT3 Biochemical Assay (3H-SAM Flashplate, peptide substrate). The following applies: single experiment or average of multiple experiments. The source says: S-adenosylmethionine (SAM), S-adenosylhomocysteine (SAH), bicine, Tween20, dimethylsulfoxide (DMSO), bovine skin gelatin (BSG), isopropyl-β-D-thiogalactopyranoside (IPTG), and Tris(2-carboxyethyl)phosphine hydrochloride solution (TCEP) were purchased from Sigma-Aldrich at the highest level of purity possible. ^3H-SAM was purchase from American Radiolabeled Chemicals with a specific activity of 80 Ci/mmol. 384-well streptavidin Flashplates were purchased from PerkinElmer.
Peptide containing the classic RMT substrate motif was synthesized with an N-terminal linker-affinity tag motif and a C-terminal amide cap by 21st Century Biochemicals. The peptide was purified by high-performance liquid chromatography (HPLC) to greater than 95% purity and confirmed by liquid chromatography mass spectrometry (LC-MS). The sequence was Biot-Ahx-[…]-amide (SEQ ID NO.:11).
Full-length human PRMT3 (NM_005788.3) isoform 1 transcript clone was amplified from an HEK 293 cDNA library and subcloned into pGEX-KG (GE Life Sciences). The resulting construct encodes an N-terminal GST tag and a thrombin cleavage sequence ([…] […] […] […]) (SEQ ID NO.: 12) fused directly to Cys 2 of PRMT3.
E. coli (BL21(DE3) Gold, Stratagene) made competent by the CaCl2 method were transformed with the PRMT3 construct and ampicillin selection. Protein over-expression was accomplished by growing the PRMT3 expressing E. coli clone and inducing expression with 0.3 mM IPTG at 16° C. The culture was grown for 12 hours, harvested by centrifugation, and stored at −80° C. for purification.
GST-tagged PRMT3 was eluted with 50 mM Tris, 2 mM glutathione, pH 7.1 and 50 mM Tris, 20 mM glutathione, pH 7.1. Pooled fractions were dialysed in 20 mM Tris, 50 mM NaCl, 5% glycerol, 1 mM EDTA, 1 mM DTT, pH7.5 (Buffer B) and applied to a Q Sepharose Fast Flow column. GST-tagged PRMT3 was eluted by 500 mM NaCl in buffer B. Pooled fractions were dialyzed in 25 mM phosphate buffer, 100 mM NaCl, 5% glycerol, 2 mM DTT, pH 6.8 (Buffer C) and loaded on to a ceramic hydroxyapatite column. GST-tagged PRMT3 eluted with 25-400 mM phosphate in buffer C. Protein was concentrated and buffer was exchanged to 20 mM Tris, 150 mM NaCl, 5% glycerol, 5 mM β-mercaptoethanol, pH7.8 by ultrafiltration. The purity of recovered protein was 70%.
General Procedure for PRMT3 Enzyme Assays on Peptide Substrates.
The assays were all performed in a buffer consisting of 20 mM Bicine (pH=7.6), 1 mM TCEP, 0.005% BSG, and 0.002% Tween 20, prepared on the day of use. Compounds in 100% DMSO (1 ul) were spotted into a polypropylene 384-well V-bottom plates (Greiner) using a Platemate Plus outfitted with a 384-channel head (Thermo Scientific). DMSO (1 ul) was added to Columns 11, 12, 23, 24, rows A-H for the maximum signal control and 1 ul of SAH, a known product and inhibitor of PRMT3, was added to columns 11, 12, 23, 24, rows I-P for the minimum signal control. A cocktail (40 ul) containing the PRMT3 enzyme was added by Multidrop Combi (Thermo-Fisher). The compounds were allowed to incubate with PRMT3 for 30 min at room temperature, then a cocktail (10 ul) containing SAM and peptide was added to initiate the reaction (final volume=51 ul). The final concentrations of the components were as follows: PRMT3 was 0.5 nM, ^3H-SAM was 100 nM, non-radiolabeled SAM was 1.8 uM, peptide was 330 nM, SAH in the minimum signal control wells was 1 mM, and the DMSO concentration was 2%. The assays were stopped by the addition of potassium chloride (10 ul) to a final concentration of 100 mM. 50 ul of the reaction in the 384-well polypropylene plate was then transferred to a 384-well Flashplate and the biotinylated peptides were allowed to bind to the streptavidin surface for at least 1 hour before being washed once with 0.1% Tween20 in a Biotek ELx405 plate washer. […]
As a reminder, the IC50 is the concentration needed to halve the response being measured. High values mean weaker potency, low ones greater potency. `CC(C)Cc1ccc(-c2c[nH]nc2CN(C)CCN)cc1` [Compound 170]: the IC50 is 7.33 µM.
In the case of `CN(CCN)Cc1c[nH]nc1-c1cccc(N(C)C)c1` [Compound 149], the IC50 was determined as 9.02 µM.
`CNCCN(C)Cc1cnn(C(C)C)c1-c1ccc(F)cc1` [Compound 16] had an IC50 of over 50 µM.
On to `CNCCN(C)Cc1cnn(C2CC2)c1-c1ccc(F)cc1` [Compound 14], for which the half-inhibitory concentration (IC50) came out at 23.3 µM.
Compound `CNCCN(C)Cc1cn[nH]c1-c1ccc(C#N)cc1` [Compound 17] gave a concentration for half-maximal inhibition (IC50) of 2.79 µM. This IC50 is about 8.4-fold lower than that of the compound before.
For the compound `COc1ccc(-c2n[nH]cc2CN(C)CCN)c(C)c1` [Compound 155], the midpoint of inhibition, the IC50, lay at 8.56 µM.
`CN(CCN)Cc1c[nH]nc1-c1ccc(OCCN2CCOCC2)cc1` [Compound 172] displayed an IC50 of 3.41 µM.
As for `COc1ccc(-c2n[nH]cc2CN(C)CCN)cc1` [Compound 153], the IC50 stood at 4.1 µM.
As for `Cc1cc(F)ccc1-c1n[nH]cc1CN(C)CCN` [Compound 152], the figure is 9.63 µM; as for `CNCCN(C)Cc1cn[nH]c1-c1cc(F)cc(F)c1` [Compound 18], 7.43 µM.
The compound `Cc1ccc(-c2n[nH]cc2CN(C)CCN)cc1` [Compound 162] had an IC50 of 3.52 µM.
The compound `COc1ccc(-c2n[nH]cc2CN(C)CCN)c(Cl)c1` [Compound 146] showed an IC50 of 9 µM.
Compound `COCCOc1ccc(-c2n[nH]cc2CN(C)CCN)cc1` [Compound 167] returned an IC50 of 3.74 µM.
With `CN(CCN)Cc1n[nH]cc1-c1ccc(C2CCOCC2)cc1` [Compound 145], the 50% inhibitory concentration (IC50) was determined as 7.18 µM.
`CCOc1ccc(-c2n[nH]cc2CN(C)CCN)cc1` [Compound 166] displayed an IC50 of 3.45 µM.
